Test [1] addresses T1, BLK (Homo sapiens, UniProt P51451).
T1 construct: purchased Reaction Biology Co
Kind of test: Enzyme inhibitory activity (Kd), Reaction Biology Co. Format: binding.

Test [2] deals with T2, LYN (Homo sapiens, UniProt P07948).
T2 construct: purchased Reaction Biology Co
The description is as above. The test is classed as binding.

The target in test [3] is T3, SRC (Homo sapiens, UniProt P12931).
T3 construct: purchased Reaction Biology Co
The description is as above. The test is classed as binding.

Test [4] addresses T4, YES (Homo sapiens, UniProt P07947).
T4 construct: purchased Reaction Biology Co
The test is described as above. The test is classed as binding.

Test [5] concerns the target T5, CDK11 (Homo sapiens, UniProt Q9BWU1).
T5 construct: purchased Reaction Biology Co
Described as above. The test is classed as binding.

For test [6], the system named is STZ diabetes induced white mice. Description: Diabetes (streptozotocin) induced white mice. The settings on record: STZ + Example 11 (30 mg/kg), 8 weeks; Mean ± SE. The test is classed as in vivo, SD rats. How it is done: Blood was collected with a heparinized syringe before sacrificing the experimental animals. HbA1c was measured by using a DCA2000 HbA1c reagent kit (SIEMENS Healthcare Diagnostics, Inc., Tarrytown, N.Y., USA) and blood sugar was measured by using a glucometer (OneTouch Ultra, Johnson & Johnson co., CA, USA). The blood sample obtained above was centrifuged at 3000 rpm at 4° C. for 15 minutes to obtain serum. Serum cystatin C was measured by using an ELISA kit (R&D Systems, Minneapolis, Minn., USA). […]
Male SD white mice at 6-7 weeks of age (Japan SLC Inc., Hamamatsu, Japan) were used. Streptozotocin (STZ, 60 mg/kg, intraperitoneally administered) was administered to the experimental animals to induce type I diabetes. The STZ non-treated control group was treated with sodium citrate buffer (sodium citrate 100 mM, citric acid 100 mM, pH 4.5). To investigate the therapeutic effect of the compound of example 11, the compound was orally administered to the experimental animals for 8 weeks from the beginning of diabetes induction. The effect was compared with that of losartan (1 mg/kg/d) that is an angiotensin receptor antagonist being used clinically as a drug to treat diabetic nephropathy. The diabetic control (treated with STZ alone) was administered with the solvent of Example 11, DMSO/Tween 70.DW (10:5:85).
Table 8 below presents the body weight, kidney weight, ratio of kidney to body weight, HbA1C, blood sugar and urine amount (volume) of the mice of each group, which were measured 8 weeks after the treatment of control (non-treated with STZ), STZ, STZ+compound of Example 11 (30 mg/kg) and STZ+losartan (1 mg/kg).

We go through 3 compounds from patent US10870647B2, “Imidazopyridine derivative, method for preparing same, and pharmaceutical composition containing same as active ingredient for preventing or treating cancer” (DAEGU-GYEONGBUK MEDICAL INNOVATION FOUNDATION, priority 2016, dated 2020).

In general, Kd refers to the concentration at which binding is half-saturated. A higher Kd goes with weaker binding.

T2 sequence (P07948 whole entry): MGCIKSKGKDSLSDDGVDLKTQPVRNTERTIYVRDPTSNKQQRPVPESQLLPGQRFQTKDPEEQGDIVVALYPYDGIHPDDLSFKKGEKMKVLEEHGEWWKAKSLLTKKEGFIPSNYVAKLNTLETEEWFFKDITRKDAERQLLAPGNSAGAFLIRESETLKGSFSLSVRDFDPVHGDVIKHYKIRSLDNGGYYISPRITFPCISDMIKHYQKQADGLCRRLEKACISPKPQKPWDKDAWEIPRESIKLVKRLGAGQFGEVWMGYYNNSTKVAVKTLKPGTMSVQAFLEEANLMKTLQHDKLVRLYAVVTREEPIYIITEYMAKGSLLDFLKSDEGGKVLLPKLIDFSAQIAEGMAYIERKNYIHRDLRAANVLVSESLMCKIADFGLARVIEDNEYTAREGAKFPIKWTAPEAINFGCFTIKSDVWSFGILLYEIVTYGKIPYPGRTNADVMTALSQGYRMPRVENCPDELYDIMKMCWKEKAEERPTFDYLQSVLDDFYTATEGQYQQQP
T3 sequence (P12931 whole entry): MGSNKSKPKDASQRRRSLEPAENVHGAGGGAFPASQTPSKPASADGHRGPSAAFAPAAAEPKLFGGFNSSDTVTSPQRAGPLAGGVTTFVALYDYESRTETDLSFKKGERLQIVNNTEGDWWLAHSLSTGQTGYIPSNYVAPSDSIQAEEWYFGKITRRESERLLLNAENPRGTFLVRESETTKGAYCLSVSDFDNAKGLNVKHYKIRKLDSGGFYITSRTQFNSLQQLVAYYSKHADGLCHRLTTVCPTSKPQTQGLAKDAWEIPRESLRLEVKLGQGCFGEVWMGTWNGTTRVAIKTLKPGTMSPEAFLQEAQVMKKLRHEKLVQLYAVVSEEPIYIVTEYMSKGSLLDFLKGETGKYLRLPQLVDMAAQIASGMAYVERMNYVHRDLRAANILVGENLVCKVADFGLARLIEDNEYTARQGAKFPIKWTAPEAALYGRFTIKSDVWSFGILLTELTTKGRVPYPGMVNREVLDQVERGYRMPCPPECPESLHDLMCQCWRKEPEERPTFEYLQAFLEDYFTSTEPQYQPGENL
T1 sequence (P51451 whole entry): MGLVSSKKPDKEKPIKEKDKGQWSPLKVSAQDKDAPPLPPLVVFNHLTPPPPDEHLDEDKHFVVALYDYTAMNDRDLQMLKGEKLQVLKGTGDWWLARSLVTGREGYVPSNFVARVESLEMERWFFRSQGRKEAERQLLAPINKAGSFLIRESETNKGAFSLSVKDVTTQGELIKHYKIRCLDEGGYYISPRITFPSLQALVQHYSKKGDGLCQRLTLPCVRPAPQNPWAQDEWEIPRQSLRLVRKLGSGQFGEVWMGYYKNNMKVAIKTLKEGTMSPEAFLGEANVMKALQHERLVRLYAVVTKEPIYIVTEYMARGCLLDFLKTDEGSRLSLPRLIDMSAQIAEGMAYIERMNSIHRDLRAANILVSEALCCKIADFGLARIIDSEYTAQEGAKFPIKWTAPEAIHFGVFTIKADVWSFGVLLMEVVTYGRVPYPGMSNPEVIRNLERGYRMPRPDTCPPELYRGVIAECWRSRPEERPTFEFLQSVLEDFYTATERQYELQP
T4 sequence (P07947 whole entry): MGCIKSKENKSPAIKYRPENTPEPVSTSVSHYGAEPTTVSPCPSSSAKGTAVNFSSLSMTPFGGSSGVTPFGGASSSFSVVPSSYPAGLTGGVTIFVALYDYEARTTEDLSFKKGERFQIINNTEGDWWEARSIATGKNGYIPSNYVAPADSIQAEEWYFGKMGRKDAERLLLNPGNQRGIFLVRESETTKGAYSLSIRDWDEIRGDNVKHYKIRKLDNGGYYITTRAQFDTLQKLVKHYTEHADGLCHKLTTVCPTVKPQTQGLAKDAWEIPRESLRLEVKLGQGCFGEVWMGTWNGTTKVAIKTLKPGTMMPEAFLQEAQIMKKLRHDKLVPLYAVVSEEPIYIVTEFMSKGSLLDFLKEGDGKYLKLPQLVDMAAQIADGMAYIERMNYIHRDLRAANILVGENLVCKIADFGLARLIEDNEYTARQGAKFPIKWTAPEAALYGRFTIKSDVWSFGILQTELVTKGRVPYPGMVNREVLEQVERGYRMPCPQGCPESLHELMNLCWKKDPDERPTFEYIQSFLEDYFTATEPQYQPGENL
T5 sequence (Q9BWU1 whole entry): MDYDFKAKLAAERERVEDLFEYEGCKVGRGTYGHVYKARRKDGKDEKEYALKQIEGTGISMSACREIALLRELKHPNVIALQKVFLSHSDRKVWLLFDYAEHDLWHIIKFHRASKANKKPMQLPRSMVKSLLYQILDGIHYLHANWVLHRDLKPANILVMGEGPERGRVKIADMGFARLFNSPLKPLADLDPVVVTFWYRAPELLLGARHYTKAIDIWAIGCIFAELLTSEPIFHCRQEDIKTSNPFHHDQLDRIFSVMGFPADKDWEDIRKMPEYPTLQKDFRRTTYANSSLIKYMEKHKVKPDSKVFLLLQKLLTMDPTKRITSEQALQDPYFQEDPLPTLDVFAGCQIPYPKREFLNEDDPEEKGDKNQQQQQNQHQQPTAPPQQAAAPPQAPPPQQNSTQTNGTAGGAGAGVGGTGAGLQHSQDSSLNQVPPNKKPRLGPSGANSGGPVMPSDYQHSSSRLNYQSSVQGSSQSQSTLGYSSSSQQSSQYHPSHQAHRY

With `CCN1CCN(Cc2ccc(NC(=O)c3ccc(C)c(C#Cc4cnc5c(Nc6cnn(C)c6)cccn45)c3)cc2C(F)(F)F)CC1` [Example 8, N-(4-((4-ethylpiperazin-1-yl)methyl)-3-(trifluoromethyl)phenyl)-4-methyl-3-((8-((1-methyl-1H-pyrazol-4-yl)amino)imidazo[1,2-a]pyridin-3-yl)ethynyl)benzamide], the Kd was found to be 5 nM in test [1], 15 nM in test [2], 10 nM in test [3] and 17 nM in test [4].

`Cc1ccc(C(=O)Nc2ccc(CN3CCN(C)CC3)c(C(F)(F)F)c2)cc1C#Cc1cnc2c(Nc3cnn(C)c3)cccn12` [Example 1, 4-methyl-3-((8-((1-methyl-1H-pyrazol-4-yl)amino)imidazo[1,2-a]pyridin-3-yl)ethynyl)-N-(4-((4-methylpiperazin-1-yl)methyl)-3-(trifluoromethyl)phenyl)benzamide]: the Kd in test [5] was found to be 140 nM.

For `Cc1ccc(C(=O)Nc2cccc(C(F)(F)F)c2)cc1C#Cc1cnc2c(Nc3cnn(C4CCNCC4)c3)cccn12` [Example 11, 4-methyl-3-((8-((1-(piperidin-4-yl)-1H-pyrazol-4-yl)amino)imidazo[1,2-a]pyridin-3-yl)ethynyl)-N-(3-(trifluoromethyl)phenyl)benzamide], in test [6], the HbA1C is 6.7 ± 0.2 %, the Kidney is 1.6 ± 0.1 g, the Urine volume was 93.0 ± 12.5 and the Weight came out at 241 ± 16.0 g. Also, in test [6], the blood sugar turned out to be 392 ± 33 mg/dL and the kidney/Weight ratio turned out to be 0.7 ± 0.04.
